The values that follow come from patent US10722495B2, “Cyanoindazole compounds and uses thereof” (Incyte Corporation, priority 2017, dated 2020).

Bounds are passed on as bounds.

Chain of HPK1 (Q92918 1-346): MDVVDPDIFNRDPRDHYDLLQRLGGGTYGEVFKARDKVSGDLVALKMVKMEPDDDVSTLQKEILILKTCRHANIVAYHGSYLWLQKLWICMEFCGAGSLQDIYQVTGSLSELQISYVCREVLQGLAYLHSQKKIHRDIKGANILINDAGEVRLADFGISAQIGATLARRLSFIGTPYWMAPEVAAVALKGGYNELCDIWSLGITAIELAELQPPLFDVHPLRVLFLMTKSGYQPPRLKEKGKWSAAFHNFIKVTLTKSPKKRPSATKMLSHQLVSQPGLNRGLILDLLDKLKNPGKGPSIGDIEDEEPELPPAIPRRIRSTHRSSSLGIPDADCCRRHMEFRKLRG

The experiment concerns the target HPK1 (Homo sapiens (Human), UniProt Q92918). Kind of experiment: HPK1 Kinase Binding Assay. Conditions: active HPK1 (SignalChem M23-11G), tracer 222, LanthaScreen Eu-Anti GST antibody, one hour incubation at 25° C. As for the experimental part: Example A. HPK1 Kinase Binding Assay
A stock solution of 1 mM test compound was prepared in DMSO. The compound plate was prepared by 3-fold and 11-point serial dilutions. 0.1 μL of the compound in DMSO was transferred from the compound plate to the white 384 well polystyrene plates. The assay buffer contained 50 mM HEPES, pH 7.5, 0.01% Tween-20, 5 mM MgCl2, 0.01% BSA, and 5 mM DTT. 5 μl of 4 nM active HPK1 (SignalChem M23-11G) prepared in the buffer was added to the plate. The enzyme concentration given was based on the given stock concentration reported by the vender. 5 μl of 18 nM tracer 222 (ThermoFisher PV6121) and 4 nM LanthaScreen Eu-Anti GST antibody (ThermoFisher PV5595) were added. After one hour incubation at 25° C., the plates were read on a PHERAstar FS plate reader (BMG Labtech). Ki values were determined.
A general note: In TR-FRET formats the signal depends on donor and acceptor labels being close together.
As to `CNCc1cc(C)c(-c2cc3c(-c4cnsc4)n[nH]c3cc2C#N)c(F)c1` [Example 37, 5-(2-Fluoro-6-methyl-4-((methylamino)methyl)phenyl)-3-(isothiazol-4-yl)-1H-indazole-6-carbonitrile], the Ki (as a rule, a dissociation constant, usually derived from enzyme kinetics or from competition with a known ligand) is no more than 0.1 µM. On to `CNCc1cc(C)c(-c2cc3c(-c4cnn(C)c4)n[nH]c3cc2C#N)c(F)c1` [Example 26, 5-(2-Fluoro-6-methyl-4-((methylamino)methyl)phenyl)-3-(1-methyl-1H-pyrazol-4-yl)-1H-indazole-6-carbonitrile], for which the inhibitory constant (Ki) is no more than 0.1 µM.

In turn, `CNCc1cc(C)c(-c2cc3c(-c4cnoc4)n[nH]c3cc2C#N)c(F)c1` [Example 38, 5-(2-Fluoro-6-methyl-4-((methylamino)methyl)phenyl)-3-(isoxazol-4-yl)-1H-indazole-6-carbonitrile] gave a Ki of no more than 0.1 µM. For the compound `CNCc1cc(C)c(-c2cc3c(-c4ccc(C(=O)NC)cc4)n[nH]c3cc2C#N)c(F)c1` [Example 8, 4-(6-Cyano-5-(2-fluoro-6-methyl-4-((methylamino)methyl)phenyl)-1H-indazol-3-yl)-N-methylbenzamide], the inhibition constant (Ki) was no more than 0.1 µM. Turning to `CNCc1cc(C)c(-c2cc3c(-c4cnc(C)o4)n[nH]c3cc2C#N)c(F)c1` [Example 40, 5-(2-Fluoro-6-methyl-4-((methylamino)methyl)phenyl)-3-(2-methyloxazol-5-yl)-1H-indazole-6-carbonitrile], the Ki was no more than 0.1 µM.

Consider `CNCc1cc(C)c(-c2cc3c(-c4ccc(CC#N)cc4)n[nH]c3cc2C#N)c(F)c1` [Example 16, 3-(4-(Cyanomethyl)phenyl)-5-(2-fluoro-6-methyl-4-((methylamino)methyl)phenyl)-1H-indazole-6-carbonitrile], for which the Ki was no more than 0.1 µM.

For the compound `CNCc1cc(C)c(-c2cc3c(-c4ccc(OC)cc4)n[nH]c3cc2C#N)c(F)c1` [Example 13, 5-(2-Fluoro-6-methyl-4-((methylamino)methyl)phenyl)-3-(4-methoxyphenyl)-1H-indazole-6-carbonitrile], the Ki was no more than 0.1 µM.

`CNCc1cc(C)c(-c2cc3c(-c4ccc(S(=O)(=O)C(C)C)cc4)n[nH]c3cc2C#N)c(F)c1` [Example 25, 5-(2-Fluoro-6-methyl-4-((methylamino)methyl)phenyl)-3-(4-(isopropylsulfonyl)phenyl)-1H-indazole-6-carbonitrile] displayed a Ki of no more than 0.1 µM. `CNCc1cc(C)c(-c2cc3c(-c4ccc(C5CCOCC5)cc4)n[nH]c3cc2C#N)c(F)c1` [Example 39, 5-(2-Fluoro-6-methyl-4-((methylamino)methyl)phenyl)-3-(4-(tetrahydro-2H-pyran-4-yl)phenyl)-1H-indazole-6-carbonitrile] registered a Ki of no more than 0.1 µM. Regarding `CNCc1cc(C)c(-c2cc3c(-c4ccc(N5CC(CO)C5)nc4)n[nH]c3cc2C#N)c(F)c1` [Example 44, 5-(2-Fluoro-6-methyl-4-((methylamino)methyl)phenyl)-3-(6-(3-(hydroxymethyl)azetidin-1-yl)pyridin-3-yl)-1H-indazole-6-carbonitrile], the inhibitory constant (Ki) was no more than 0.1 µM.

`CNCc1cc(C)c(-c2cc3c(-c4ccc(C(=O)N(C)C)cc4)n[nH]c3cc2C#N)c(F)c1` [Example 9, 4-(6-Cyano-5-(2-fluoro-6-methyl-4-((methylamino)methyl)phenyl)-1H-indazol-3-yl)-N,N-dimethylbenzamide] had a Ki of no more than 0.1 µM. On to `CNCc1cc(C)c(-c2cc3c(-c4cccc(OC)c4)n[nH]c3cc2C#N)c(F)c1` [Example 12, 5-(2-Fluoro-6-methyl-4-((methylamino)methyl)phenyl)-3-(3-methoxyphenyl)-1H-indazole-6-carbonitrile], for which the Ki is no more than 0.1 µM. `CNCc1cc(C)c(-c2cc3c(-c4cccc(N5CC[C@H](N(C)C)C5)n4)n[nH]c3cc2C#N)c(F)c1` [Example 47, 3-(6-((S)-3-(Dimethylamino)pyrrolidin-1-yl)pyridin-2-yl)-5-(2-fluoro-6-methyl-4-((methylamino)methyl)phenyl)-1H-indazole-6-carbonitrile] had an inhibitory constant (Ki) of no more than 0.1 µM. On to `CNCc1cc(C)c(-c2cc3c(-c4ccc(C5CC5)cc4)n[nH]c3cc2C#N)c(F)c1` [Example 15, 3-(4-Cyclopropylphenyl)-5-(2-fluoro-6-methyl-4-((methylamino)methyl)phenyl)-1H-indazole-6-carbonitrile], for which the Ki was no more than 0.1 µM. `CNCc1cc(C)c(-c2cc3c(-c4cn[nH]c4)n[nH]c3cc2C#N)c(F)c1` [Example 4, 5-(2-Fluoro-6-methyl-4-((methylamino)methyl)phenyl)-3-(1H-pyrazol-4-yl)-1H-indazole-6-carbonitrile] gave a Ki of no more than 0.1 µM. `CC[C@@H](C)Nc1ccc(-c2n[nH]c3cc(C#N)c(-c4c(C)cc(CNC)cc4F)cc23)cn1` [Example 43, 3-(6-(((R)-sec-Butyl)amino)pyridin-3-yl)-5-(2-fluoro-6-methyl-4-((methylamino)methyl)phenyl)-1H-indazole-6-carbonitrile]: the inhibition constant Ki was no more than 0.1 µM.

Regarding `CNCc1cc(C)c(-c2cc3c(-c4ccc(NC(C)=O)cc4)n[nH]c3cc2C#N)c(F)c1` [Example 10, N-(4-(6-Cyano-5-(2-fluoro-6-methyl-4-((methylamino)methyl)phenyl)-1H-indazol-3-yl)phenyl)acetamide], the Ki is no more than 0.1 µM. With `CNCc1cc(C)c(-c2cc3c(-c4ccc(N5CCN(C(C)=O)CC5)nc4)n[nH]c3cc2C#N)c(F)c1` [Example 30, 3-(6-(4-Acetylpiperazin-1-yl)pyridin-3-yl)-5-(2-fluoro-6-methyl-4-((methylamino)methyl)phenyl)-1H-indazole-6-carbonitrile], the Ki is no more than 0.1 µM. With `CNCc1cc(C)c(-c2cc3c(-c4ccc(N5CCC(O)CC5)nc4)n[nH]c3cc2C#N)c(F)c1` [Example 42, 5-(2-Fluoro-6-methyl-4-((methylamino)methyl)phenyl)-3-(6-(4-hydroxypiperidin-1-yl)pyridin-3-yl)-1H-indazole-6-carbonitrile], the inhibitory constant (Ki) is no more than 0.1 µM. `CNCc1cc(C)c(-c2cc3c(-c4ccc(C(C)(C)C#N)cc4)n[nH]c3cc2C#N)c(F)c1` [Example 19, 3-(4-(2-Cyanopropan-2-yl)phenyl)-5-(2-fluoro-6-methyl-4-((methylamino)methyl)phenyl)-1H-indazole-6-carbonitrile] yielded an inhibition constant Ki of no more than 0.1 µM. `CNCc1cc(C)c(-c2cc3c(-c4ccc(C(=O)NC)c(F)c4)n[nH]c3cc2C#N)c(F)c1` [Example 17, 4-(6-Cyano-5-(2-fluoro-6-methyl-4-((methylamino)methyl)phenyl)-1H-indazol-3-yl)-2-fluoro-N-methylbenzamide] registered an inhibitory constant (Ki) of no more than 0.1 µM. `CNCc1cc(C)c(-c2cc3c(-c4ccc(C(F)(F)F)cc4)n[nH]c3cc2C#N)c(F)c1` [Example 14, 5-(2-Fluoro-6-methyl-4-((methylamino)methyl)phenyl)-3-(4-(trifluoromethyl)phenyl)-1H-indazole-6-carbonitrile]: the Ki was no more than 0.1 µM. For `Cc1ccccc1-c1cc2c(-c3cnn(C)c3)n[nH]c2cc1C#N` [Example 48, 3-(1-Methyl-1H-pyrazol-4-yl)-5-o-tolyl-1H-indazole-6-carbonitrile], the inhibition constant (Ki) was no more than 0.1 µM.

Compound `CNCc1cc(C)c(-c2cc3c(-c4ccc(N5CC[C@H](F)C5)nc4)n[nH]c3cc2C#N)c(F)c1` [Example 41, 5-(2-Fluoro-6-methyl-4-((methylamino)methyl)phenyl)-3-(6-((S)-3-fluoropyrrolidin-1-yl)pyridin-3-yl)-1H-indazole-6-carbonitrile] returned an inhibition constant Ki of no more than 0.1 µM.

`CNCc1cc(C)c(-c2cc3c(-c4cnn(C5CC5)c4)n[nH]c3cc2C#N)c(F)c1` [Example 2, 3-(1-Cyclopropyl-1H-pyrazol-4-yl)-5-(2-fluoro-6-methyl-4-((methylamino)methyl)phenyl)-1H-indazole-6-carbonitrile] returned a Ki of no more than 0.1 µM.

`CNCc1cc(C)c(-c2cc3c(-c4cnn(C(C)C)c4)n[nH]c3cc2C#N)c(F)c1` [Example 6, 5-(2-Fluoro-6-methyl-4-((methylamino)methyl)phenyl)-3-(1-isopropyl-1H-pyrazol-4-yl)-1H-indazole-6-carbonitrile] had a Ki of no more than 0.1 µM.

Regarding `CNCc1cc(C)c(-c2cc3c(-c4cnco4)n[nH]c3cc2C#N)c(F)c1` [Example 36, 5-(2-Fluoro-6-methyl-4-((methylamino)methyl)phenyl)-3-(oxazol-5-yl)-1H-indazole-6-carbonitrile], the Ki is no more than 0.1 µM. In turn, `CNCc1cc(C)c(-c2cc3c(-c4ccc(C5(C#N)CC5)cc4)n[nH]c3cc2C#N)c(F)c1` [Example 20, 3-(4-(1-Cyanocyclopropyl)phenyl)-5-(2-fluoro-6-methyl-4-((methylamino)methyl)phenyl)-1H-indazole-6-carbonitrile] returned a Ki of no more than 0.1 µM. The compound `CNCc1cc(C)c(-c2cc3c(-c4ccc(C(=O)NC(C)C)cc4Cl)n[nH]c3cc2C#N)c(F)c1` [Example 22, 3-Chloro-4-(6-cyano-5-(2-fluoro-6-methyl-4-((methylamino)methyl)phenyl)-1H-indazol-3-yl)-N-isopropylbenzamide] registered a Ki of no more than 0.1 µM. The compound `CNCc1cc(C)c(-c2cc3c(-c4ccc(C(=O)N(C)C)c(F)c4)n[nH]c3cc2C#N)c(F)c1` [Example 21, 4-(6-Cyano-5-(2-fluoro-6-methyl-4-((methylamino)methyl)phenyl)-1H-indazol-3-yl)-2-fluoro-N,N-dimethylbenzamide] displayed an inhibition constant (Ki) of no more than 0.1 µM. For the compound `CNCc1cc(C)c(-c2cc3c(-c4cnc(OC)nc4)n[nH]c3cc2C#N)c(F)c1` [Example 35, 5-(2-Fluoro-6-methyl-4-((methylamino)methyl)phenyl)-3-(2-methoxypyrimidin-5-yl)-1H-indazole-6-carbonitrile], the inhibition constant Ki is no more than 0.1 µM.
